This is an account of results in US20120315303A1, “METHODS AND INTRAVASCULAR TREATMENT DEVICES USING PACLITAXEL FOR TREATMENT OF ATHEROSCLEROSIS” (Medtronic Vascular, Inc., priority 2011, published 2012).

Holding throughout (type): cell-based
The subject of assay [1] is Thrombospondin-3. In words: qRT-PCR Thrombospondin-3 expression in drug-treated, inflammatory cocktail stimulated SFA smooth muscle cells. As to conditions: quiescent SFA smooth muscle cells stimulated with FBS, TGF Beta and IL1beta, FIG. 14F. The protocol:
(§1) FIG. 14 depicts differential effect of paclitaxel versus the Limus family of drugs on expression of cell cycle, proliferation and ECM target genes in SFA smooth muscle cells. Quiescent SFA smooth muscle cells were treated with of Paclitaxel, Zotarolimus or Sirolimus then stimulated with inflammatory cocktail consisting of FBS, TGF Beta and IL1beta. Relative gene expression levels were determined by qRT-PCR for each drug treated arm as calibrated against the unstimulated baseline control for (A) BTG2, (B) KLF4, (C) PEDF, (D) Endothelin-1, (E) Thrombospondin-1, and (F) Thrombospondin-3.
(§2) In a similar manner, the expression of Thrombospondin-1 and Thrombospondin-3 is inhibited by paciltaxel but not by sirolimus and zotarolimus. Taken together the data with regards to the differential effects of commercially employed, anti-proliferative drugs, such as paciltaxel and drugs of the limus family, on the expression of SFA disease target genes can highlight/point to wards the most beneficial therapeutic mode of application and treatment.
For orientation: In qPCR the cycle at which signal appears reflects the starting amount.

The subject of assay [2] is KLF4. In words: qRT-PCR KLF4 expression in drug-treated, inflammatory cocktail stimulated SFA smooth muscle cells. As to conditions: quiescent SFA smooth muscle cells stimulated with FBS, TGF Beta and IL1beta, FIG. 14B. As to the method:
as §1
(§3) Since the limus drugs have been known to affect the signaling via their effect on cell cycle inhibitors (CDKN1A and CDKN1B), we next studied their effects on the pertinent proliferative disease targets identified in this study. Specifically, we looked at BTG2, KLF4 and PEDF (FIGS. 14A, 14B, and 14C, respectively). […] The limus drugs, sirolimus and zotarolimus induced the expression of BTG2, KLF4 cell cycle inhibitors, but not of the proliferation PEDF inhibitor, which are previously unknown actions for these drugs.

The subject of assay [3] is Thrombospondin-1. Kind of assay: qRT-PCR Thrombospondin-1 expression in drug-treated, inflammatory cocktail stimulated SFA smooth muscle cells. Conditions: quiescent SFA smooth muscle cells stimulated with FBS, TGF Beta and IL1beta, FIG. 14E. As to the method:
as §1, §2

Assay [4] has as its system Cathepsin S. Kind of assay: In vitro Cathepsin S expression.
For assay [5], the system named is CTGF. Kind of assay: Western blot of CTGF protein in drug-treated SFA derived smooth muscle cells. Conditions: SFA derived smooth muscle cells stimulated with Colchicinne or Angiotensin II, FIG. 13D. The protocol: (§4) FIG. 13 depicts effects of paclitaxel on cellular morphology, gene and protein expression. (A and B) SFA smooth muscle cells from normal donor tissue were treated with Paclitaxel, Everolimus or Sirolimus. Gene expression levels were determined by qRT-PCR for each drug arm calibrated against unstimulated control for (A) CDKN1A and (C) CTGF. (B) SMCs were exposed to Sirolimus or Paclitaxel, fixed and stained with Actin (red) and Ki67 (green). (D) SFA derived smooth muscle cells were treated with Paclitaxel, Everolimus or Sirolimus then stimulated with Colchicinne (CTGF a) or Angiotensin II (CTGF b). Protein levels were detected by western blot using antibodies against CTGF and beta actin. One representative blot of three replicates shown.
(§5) Obtaining samples from SFA arteries allowed us to generate SFA derived-smooth muscle cells and to examine the expression of genes of interest as ide12tified in the disease atherectomy samples. In particularly we investigated the transcriptional response to anti-proliferative drugs, e.g. paclitaxel and drugs from the limus family such as sirolimus, everolimus or zotarolimus. These drugs are currently employed in combination devices indicated for the treatment of coronary and peripheral disease, including drug eluting stents and drug eluting balloons. […]
On the technique in general: A western blot detects proteins with antibodies after separation by electrophoresis.

Assay [6] relates to CDKN1A. In words: qRT-PCR CDKN1A gene expression in drug-treated SFA smooth muscle cells. Conditions: SFA smooth muscle cells from normal donor tissue; qRT-PCR calibrated against unstimulated control; FIG. 13A. As to the method:
as §4, §5

Assay [7] deals with SFA smooth muscle cells. Kind of assay: Actin and Ki67 staining of drug-exposed SMCs (cellular morphology). As to conditions: SMCs fixed and stained with Actin and Ki67; FIG. 13B. As to the method: as §4, §5
For assay [8], the system named is CTGF. In words: qRT-PCR CTGF gene expression in drug-treated SFA smooth muscle cells. As to conditions: qRT-PCR calibrated against unstimulated control, FIG. 13C. As to the method: as §4, §5
For assay [9], the system named is BTG2. In words: qRT-PCR BTG2 expression in drug-treated, inflammatory cocktail stimulated SFA smooth muscle cells. Conditions: quiescent SFA smooth muscle cells stimulated with FBS, TGF Beta and IL1beta, FIG. 14A. As to the method:
as §1, §3

Assay [10] relates to Endothelin-1. Kind of assay: qRT-PCR Endothelin-1 expression in drug-treated, inflammatory cocktail stimulated SFA smooth muscle cells. Conditions: quiescent SFA smooth muscle cells stimulated with FBS, TGF Beta and IL1beta, FIG. 14D. The protocol:
as §1, §2

In assay [11] the test system is PEDF. Kind of assay: qRT-PCR PEDF expression in drug-treated, inflammatory cocktail stimulated SFA smooth muscle cells. Conditions: quiescent SFA smooth muscle cells stimulated with FBS, TGF Beta and IL1beta, FIG. 14C. The protocol: as §1, §3

As to `CC(=O)O[C@H]1C(=O)[C@@]2(C)[C@H]([C@H](OC(=O)c3ccccc3)[C@]3(O)C[C@H](OC(=O)[C@H](O)[C@@H](NC(=O)c4ccccc4)c4ccccc4)C(C)=C1C3(C)C)[C@]1(OC(C)=O)CO[C@@H]1C[C@@H]2O` (relative stereo) [Paclitaxel, (1S,2S,3R,4S,7R,9S,10S,12R,15S)-4,12-Diacetoxy-15-{[(2R,3S)-3-(benzoylamino)-2-hydroxy-3-phenylpropanoyl]oxy}-1,9-dihydroxy-10,14,17,17-tetramethyl-11-oxo-6-oxatetracyclo[11.3.1.0˜3, 10˜.0˜4,7˜]heptadec-13-en-2-yl rel-benzoate], the Thrombospondin-3 gene expression result in [1] (listed as paciltaxel) was “inhibited”; in assay [1] (listed as paclitexel) it was “substantially down regulated”. The KLF4 gene expression entry in assay [2] was “up regulated”. Further, the Thrombospondin-1 gene expression entry was “inhibited” in assay [3] (listed as paciltaxel) and “substantially down regulated” in [3] (listed as paclitexel). Further, the “Cathepsin S expression” value in [4] is “induces”. In addition, in assay [5], the CTGF protein levels entry was “reduced”. Moreover, the CDKN1A gene expression entry in assay [6] is on record as “does not affect”. Moreover, the “effect on cellular cytoskeleton / morphology” value in assay [7] was “disrupting cellular cytoskeleton”. Further, the CTGF gene expression result in [8] is given as “substantial down regulation”; in assay [8] (listed as paclitexel), “substantially down regulated”. For the same compound, in assay [9], the BTG2 gene expression entry is “up regulated”. Besides, the Endothelin-1 gene expression result in assay [10] (listed as paciltaxel) is “slightly inhibited”; in assay [10] (listed as paclitexel), “substantially down regulated”. The PEDF gene expression result in [11] is reported as “up regulated”.

With `CO[C@H]1C[C@@H]2CC[C@@H](C)[C@@](O)(O2)C(=O)C(=O)N2CCCC[C@H]2C(=O)O[C@H]([C@H](C)C[C@@H]2CC[C@H](n3cnnn3)[C@H](OC)C2)CC(=O)[C@H](C)/C=C(\C)[C@@H](O)[C@@H](OC)C(=O)[C@H](C)C[C@H](C)/C=C/C=C/C=C/1C` [zotarolimus], the KLF4 gene expression result in assay [2] is on record as “induced”. Besides, the BTG2 gene expression result in [9] is “induced”. For the same compound, in [10], the Endothelin-1 gene expression result was “substantially upregulated”.

For `CO[C@H]1C[C@@H]2CC[C@@H](C)[C@@](O)(O2)C(=O)C(=O)N2CCCC[C@H]2C(=O)O[C@H]([C@H](C)C[C@@H]2CC[C@@H](OCCO)[C@H](OC)C2)CC(=O)[C@H](C)/C=C(\C)[C@@H](O)[C@@H](OC)C(=O)[C@H](C)C[C@H](C)/C=C/C=C/C=C/1C` [everolimus], the CDKN1A gene expression entry in assay [6] was “up regulating”.
